The record followed here is patent publication US20150094294A1, “COMPOUNDS AND METHODS FOR TREATING MALARIA” (Cellceutix Corporation, priority 2012, published 2015).

Values after ≈ are worked out from the molar mass of the structure shown.

Holding throughout (assay type): cell-based
Data set [1] concerns P. falciparum 3D7 (chloroquine-sensitive). As to the kind of experiment: Anti-malarial activity, P. falciparum 3D7 culture, 72 hour, DNA content by flow cytometry. The note with it: Plasmodium falciparum, 3D7, 72 h, synchronized ring-stage parasites. On the procedure:
Numerous compounds were screened in cultures of the malaria parasite P. falciparum 3D7 (chloroquine-sensitive) and DD2 (chloroquine-resistant). The compounds were also screened for toxixcity against 3T3 cells, HepG2 cells, and in a hemolysis assay. In brief, P. falciparum parasites were cultured in RPMI 1640 (Invitrogen) supplemented with Albumax II (Invitrogen). For synchronization, schizont stage parasites were magnet purified using a SuperMACS™ II Cell Separation Unit (Miltenyi Biotech). For IC50 determinations, synchronized ring-stage parasites were plated at 0.5% parasitemia and 8% hematocrit in 96-well plates at a total volume of 50 μL. Serial dilutions of 2× concentration of the respective compound, ranging from 2.5 μM to 20 nM, were added to the wells to bring the total volume up to 100 μL and 4% hematocrit. Compounds were assayed for a 72 hour period, after which the cultures were fixed with a solution of 4% paraformaldehyde and 0.08% glutaraldhyde in PBS. The cells were then permeabilized with 0.25% Triton X-100, and SYTOX Green Nucleic Acid Stain (Invitrogen) in PBS was added to a final concentration of 5 μM. DNA content, as an indicator of parasitemia, was analyzed on an Accuri C6 Flow Cytometer with C-Sampler. IC50 curves were generated using GraphPad Prism (GraphPad Software).
In general terms: Flow cytometry measures light scatter and fluorescence of single cells or particles in a stream.

A short description of data set [2]: Cytotoxicity against 3T3 cells. The note with it: mouse, 3T3 cells; read-out: Cytotoxicity 3T3 EC50.
The nature of data set [3]: Cytotoxicity against HepG2 cells. The note with it: human, HepG2 cells; read-out: Cytotoxicity HepG2 EC50.
A short description of data set [4]: in vitro.

What is called IC50 is the midpoint of a concentration-inhibition curve. Lower therefore signals higher potency. As a reminder, the EC50 is the concentration that produces a half-maximal response.

`NCCCOc1cc(OCCCN)cc(-c2ccc3c(c2)c2cc(-c4cc(OCCCN)cc(OCCCN)c4)ccc2n3CCCN)c1` [Compound 279] came in with an IC50 in data set [1] of 0.773 µM. Further, the EC50 in data set [2] is 436 µM; in data set [3], 885 µM; in data set [4] it was over 1000 µg/mL.
In the same order, the values of `CC1(C)c2cc(-c3cccc(CCNC(=N)N)c3)ccc2-c2ccc(-c3cccc(CCNC(=N)N)c3)cc21` [Compound 284] are over 0.1 µM, 6 µM, 28 µM and 2 µg/mL (≈ 3.87 µM).
`N=C(N)NCCc1cccc(-c2cc(-c3cccc(CCNC(=N)N)c3)ncn2)c1` [Compound 221] had an IC50 in data set [1] of 0.08 µM. The results for the EC50 in data set [2], in data set [3] and in data set [4] were over 1000 µM, over 1000 µM and over 1000 µg/mL, respectively.
`N#Cc1ccc(C(=O)Nc2cc(C(F)(F)F)cc(NC(=O)c3cc(C(=O)Nc4cc(C(F)(F)F)cc(N)c4SCCN)ncn3)c2SCCN)cc1` [Compound 308]: the IC50 in data set [1] was over 0.1 µM. Also, the EC50 in data set [2] stood at 22 µM; in data set [3], 34 µM; in data set [4], 2 µg/mL (≈ 2.62 µM).
Consider `O=C(Nc1ccc(O[C@H]2CCNC2)cc1)c1cc(C(=O)Nc2ccc(O[C@H]3CCNC3)cc2)ncn1` [Compound 207], for which the IC50 in data set [1] came to 0.182 µM. In addition, the EC50 in data set [2] was found to be 478 µM; in data set [3] it was 819 µM; in data set [4], 29 µg/mL (≈ 59.4 µM).
With `COc1cc(SCCN)c(C(F)(F)F)cc1NC(=O)Nc1ccc(SCCNC(=N)N)c(C(F)(F)F)c1` [Compound 276], 1.11 µM corresponded to half-maximal inhibition in data set [1] (IC50). In addition, the EC50 in data set [2] was found to be 42 µM; in data set [3], 154 µM; in data set [4], 65 µg/mL (≈ 114 µM).
The compound `N#Cc1cccc(C(=O)Nc2cc(C(F)(F)F)cc(NC(=O)c3cc(C(=O)Nc4cc(C(F)(F)F)cc(NC(=O)c5cccc(C#N)c5)c4O[C@@H]4CCNC4)ncn3)c2O[C@@H]2CCNC2)c1` [Compound 186] came in with an IC50 in data set [1] of 0.177 µM. Moreover, the EC50 in data set [2] is 63 µM; in data set [3] it was over 1000 µM; in data set [4] it was 107 µg/mL (≈ 117 µM).
The like results for `NCCCc1cccc(-c2cncc(-c3ccc(-c4cncc(-c5cccc(CCCN)c5)c4)s3)c2)c1` [Compound 232] were, in that order, 0.273 µM, 37 µM, 56 µM and 6 µg/mL (≈ 11.9 µM).
In the same order, the values of `NCCSc1c(NC(=O)c2ccccc2)cc(C(F)(F)F)cc1NC(=O)c1cc(C(=O)Nc2cc(C(F)(F)F)cc(NC(=O)c3ccccc3)c2SCCN)ncn1` [Compound 304] are 0.069 µM, 934 µM, 934 µM and 3 µg/mL (≈ 3.56 µM).
In the same order, the values of `CN(C)C1CCN(c2ccc(NC(=O)c3ccnc(C(=O)Nc4ccc(N5CCC(N(C)C)CC5)cc4)c3)cc2)CC1` [Compound 217] are over 0.1 µM, over 1000 µM, over 1000 µM and over 1000 µg/mL.
Turning to `N=C(N)N1CCN(c2ccc(-c3ccc(-c4ccc(N5CCN(C(=N)N)CC5)nc4)s3)cn2)CC1` [Compound 254], the IC50 in data set [1] amounted to 0.154 µM. For the same compound, the EC50 in data set [2] is 32 µM; in data set [3], 49 µM; in data set [4], 36 µg/mL (≈ 73.4 µM).
`N=C(N)NCCC#Cc1cncc(-c2cccc(-c3cncc(C#CCCNC(=N)N)c3)c2)c1` [Compound 137]: it took 0.187 µM to reach half-maximal inhibition in data set [1] (IC50). In addition, the values for the 50% effective concentration (EC50) in data set [2], in data set [3] and in data set [4] were 272 µM, 422 µM and over 1000 µg/mL, respectively.
On to `N#Cc1cc(NC(=O)c2cc(C(=O)Nc3ccc(O[C@@H]4CCNC4)c(C#N)c3)ncn2)ccc1O[C@@H]1CCNC1` [Compound 206], for which half-maximal inhibition in data set [1] (IC50) required 0.179 µM. Besides, the figures for the EC50 in data set [2], in data set [3] and in data set [4] were over 1000 µM, over 1000 µM and over 1000 µg/mL, respectively.
In data set [1], `COc1cc(SCCNC(=N)N)c(C(F)(F)F)cc1NC(=O)c1cc(C(=O)Nc2cc(C(F)(F)F)c(SCCNC(=N)N)cc2OC)ncn1` [Compound 302] registered an IC50 of 0.333 µM. In addition, the figures for the EC50 in data set [2], in data set [3] and in data set [4] were 687 µM, over 1000 µM and 4 µg/mL (≈ 5.34 µM), respectively.
As to `c1nc(-c2ccc(N3CCNCC3)cc2)cc(-c2ccc(N3CCNCC3)cc2)n1` [Compound 154], the IC50 in data set [1] worked out at 0.473 µM. Besides, the figures for the EC50 in data set [2], in data set [3] and in data set [4] were 210 µM, 471 µM and 352 µg/mL (≈ 879 µM), respectively.
The like results for `COc1cc(SCCN)c(C(F)(F)F)cc1NC(=O)c1cc(C(=O)Nc2cc(C(F)(F)F)c(SCCN)cc2OC)ncn1` [Compound 301] were, in that order, 0.029 µM, 716 µM, 778 µM and under 1 µg/mL.
`N=C(N)NCCCc1cccc(-c2cncc(-c3ccc(-c4cncc(-c5cccc(CCCNC(=N)N)c5)c4)s3)c2)c1` [Compound 233]: the IC50 in data set [1] is 0.737 µM. Moreover, the values for the EC50 in data set [2], in data set [3] and in data set [4] were 61 µM, 88 µM and 2 µg/mL (≈ 3.4 µM), respectively.
The like results for `CN(C)C1CCN(c2ccc(NC(=O)c3cccc(C(=O)Nc4ccc(N5CCC(N(C)C)CC5)cc4)n3)cc2)CC1` [Compound 216] were, in that order, over 0.1 µM, over 1000 µM, over 1000 µM and over 1000 µg/mL.
The like results for `N=C(N)NCCc1ccc(C(F)(F)F)cc1NC(=O)c1cc(C(=O)Nc2cc(C(F)(F)F)ccc2CCNC(=N)N)ncn1` [Compound 176] were, in that order, 0.629 µM, 523 µM, 608 µM and 314 µg/mL (≈ 503 µM).
On to `NCCc1cccc(NC(=O)c2cccc(C(=O)Nc3cccc(CCN)c3)n2)c1` [Compound 191], for which it took 0.458 µM to reach half-maximal inhibition in data set [1] (IC50). Moreover, the figures for the EC50 in data set [2], in data set [3] and in data set [4] were over 1000 µM, over 1000 µM and over 1000 µg/mL, respectively.
In data set [1], `CC(=O)Nc1cc(C(F)(F)F)cc(NC(=O)c2cc(C(=O)Nc3cc(C(F)(F)F)cc(N)c3SCCN)ncn2)c1SCCN` [Compound 203] returned an IC50 of 0.085 µM. For the same compound, the EC50 in data set [2] turned out to be 15 µM; in data set [3] it was 45 µM; in data set [4], 66 µg/mL (≈ 97.5 µM).
The like results for `Cn1c(-c2ccc(N3CCNCC3)cc2)cnc1-c1ccc(N2CCNCC2)cc1` [Compound 259] were, in that order, over 0.1 µM, over 1000 µM, over 1000 µM and 287 µg/mL (≈ 713 µM).
In data set [1], `NCCCOc1cccc(-n2cc(-c3cccc(-c4cn(-c5cccc(OCCCN)c5)nn4)c3)nn2)c1` [Compound 180] yielded an IC50 of 0.641 µM. Further, the EC50 stood at 40 µM in data set [2], 78 µM in data set [3] and 63 µg/mL (≈ 123 µM) in data set [4].
`N#Cc1cccc(C(=O)Nc2cc(NC(=O)c3cc(C(=O)Nc4cc(NC(=O)c5cccc(C#N)c5)cc(C(F)(F)F)c4)c(OCCN)cc3OCCN)cc(C(F)(F)F)c2)c1` [Compound 299] showed an IC50 in data set [1] of over 0.1 µM. Further, the EC50 worked out at 920 µM in data set [2], 920 µM in data set [3] and 251 µg/mL (≈ 292 µM) in data set [4].
`N=C(N)N1CCN(c2ccc(-c3cc(-c4ccc(N5CCN(C(=N)N)CC5)cc4)ncn3)cc2)CC1` [Compound 153]: 0.0771 µM corresponded to half-maximal inhibition in data set [1] (IC50). Also, the EC50 in data set [2] was 311 µM; in data set [3] it was 453 µM; in data set [4], 116 µg/mL (≈ 239 µM).
For the compound `COc1ccc(C(=O)Nc2cc(C(F)(F)F)cc(NC(=O)c3cc(C(=O)Nc4cc(C(F)(F)F)cc(NC(=O)c5ccc(OC)cc5)c4SCCN)ncn3)c2SCCN)cc1` [Compound 310], the IC50 in data set [1] is 0.084 µM. In addition, the EC50 in data set [2] is over 1000 µM; in data set [3], 884 µM; in data set [4] it was 81 µg/mL (≈ 89.7 µM).
In turn, `O=C(Nc1ccc(C2CCNCC2)cc1)c1cc(C(=O)Nc2ccc(C3CCNCC3)cc2)ncn1` [Compound 208] had an IC50 in data set [1] of 0.139 µM. Further, the EC50 in data set [2] was determined as 122 µM; in data set [3], 183 µM; in data set [4] it was 12 µg/mL (≈ 24.8 µM).
In the same order, the values of `N=C(N)NCCSc1nc(-c2cccc(CCNC(=N)N)c2)cc(-c2cccc(CCNC(=N)N)c2)n1` [Compound 222] are 0.551 µM, 764 µM, over 1000 µM and over 1000 µg/mL.
In the same order, the values of `NCCCc1ccc(-c2ccc(CCCN)cc2)cc1` [Compound 318] are over 0.1 µM, 624 µM, over 1000 µM and over 1000 µg/mL.
`c1cc(-c2ccc(N3CCNCC3)nc2)cc(-c2cccc(-c3ccc(N4CCNCC4)nc3)c2)c1` [Compound 319] registered a half-inhibitory concentration (IC50) in data set [1] of over 0.1 µM. Further, the values for the EC50 in data set [2], in data set [3] and in data set [4] were 57 µM, 83 µM and 52 µg/mL (≈ 109 µM), respectively.
In the same order, the values of `O=C(Nc1ccc(OC2CCNCC2)nc1)c1cc(C(=O)Nc2ccc(OC3CCNCC3)nc2)ncn1` [Compound 214] are over 0.1 µM, over 1000 µM, over 1000 µM and over 1000 µg/mL.
In the same order, the values of `COc1cc(SCCNC(=N)N)c(C(F)(F)F)cc1NC(=O)c1cc(C(=O)Nc2cc(C(F)(F)F)c(SCCNC(=N)N)cc2OC)nc(SCCNC(=N)N)n1` [Compound 184] are 0.129 µM, 478 µM, over 1000 µM and 4 µg/mL (≈ 4.62 µM).
